{"source": "paper PMC11747885", "about": "“Potent inhibitors of the human RNA ligase Rlig1 highlights its role in RNA integrity maintenance under oxidative cellular stress” (Chemical Science, 2025)", "key": {"Rlig1-AMP": {"biological_target": "T1, Rlig1-AMP (Homo sapiens, UniProt Q8N999)", "T1 construct": "made in house; host or cells: E. coli BL21 (DE3), pET15b-Rlig1", "T1 sequence (Q8N999 whole entry)": "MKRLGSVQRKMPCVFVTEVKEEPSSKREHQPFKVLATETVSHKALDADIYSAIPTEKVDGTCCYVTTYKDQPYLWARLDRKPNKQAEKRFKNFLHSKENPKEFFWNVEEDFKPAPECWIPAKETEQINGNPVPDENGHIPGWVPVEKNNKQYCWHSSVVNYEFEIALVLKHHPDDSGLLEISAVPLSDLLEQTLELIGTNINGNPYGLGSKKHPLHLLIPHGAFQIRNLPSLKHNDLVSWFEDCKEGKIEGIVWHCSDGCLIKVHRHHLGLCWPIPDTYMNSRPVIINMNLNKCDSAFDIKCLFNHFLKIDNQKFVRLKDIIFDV", "test": "FRET-based high-throughput screening of inhibitors for Rlig1-AMP", "type": "biochemical", "settings": "for Raw data [w Enyzm]: with enzyme; for Raw data [w/o Enzym]: without enzyme"}, "[1]": {"biological_target": "ATPase family AAA domain-containing protein 2 (ATAD2)", "parameters": "method as in MedChemExpress", "settings": "ref MedChemExpress; cited from earlier work"}, "[2]": {"settings": "ref MedChemExpress, cited from earlier work"}, "LTB4 receptor": {"biological_target": "LTB4 receptor", "parameters": "method as in MedChemExpress [1]", "settings": "isolated human neutrophil cell membranes; ref MedChemExpress [1]; cited from earlier work"}, "Pim-1": {"test_system": "Pim-1", "parameters": "method as in MedChemExpress", "settings": "ref MedChemExpress; cited from earlier work"}, "Pim-2": {"test_system": "Pim-2", "parameters": "method as in MedChemExpress", "settings": "ref MedChemExpress; cited from earlier work"}, "Pim-3": {"test_system": "Pim-3", "parameters": "method as in MedChemExpress", "settings": "ref MedChemExpress; cited from earlier work"}, "NLRP3 inflammasome": {"test_system": "NLRP3 inflammasome", "parameters": "method as in MedChemExpress", "settings": "ref MedChemExpress; cited from earlier work"}, "JNK1": {"test_system": "JNK1", "parameters": "method as in MedChemExpress", "settings": "ref MedChemExpress; cited from earlier work"}, "JNK2": {"test_system": "JNK2", "parameters": "method as in MedChemExpress", "settings": "ref MedChemExpress; cited from earlier work"}, "JNK3": {"test_system": "JNK3", "parameters": "method as in MedChemExpress", "settings": "ref MedChemExpress; cited from earlier work"}, "CXXC5-DVL": {"test_system": "CXXC5-DVL", "parameters": "method as in MedChemExpress", "settings": "ref MedChemExpress; cited from earlier work"}, "GSK3β": {"test_system": "GSK3β", "parameters": "method as in MedChemExpress", "settings": "ref MedChemExpress; cited from earlier work"}, "[3]": {"settings": "DMSO; ref MedChemExpress; cited from earlier work"}, "[4]": {"test_system": "human p53 and CREB binding protein association", "parameters": "method as in MedChemExpress", "settings": "at 50 μM; ref MedChemExpress; cited from earlier work"}, "DPP-4": {"test_system": "DPP-4", "parameters": "method as in MedChemExpress [1]", "settings": "ref MedChemExpress [1]; cited from earlier work"}, "all proteases tested": {"test_system": "all proteases tested", "parameters": "method as in MedChemExpress", "settings": "selectivity; ref MedChemExpress; cited from earlier work"}, "IKr, Cav1.2, and Nav1.5": {"test_system": "IKr, Cav1.2, and Nav1.5", "parameters": "method as in MedChemExpress", "settings": "ion channel activity; ref MedChemExpress; cited from earlier work"}, "[5]": {"biological_target": "168 radioligand binding or enzymatic assays", "parameters": "method as in MedChemExpress", "settings": "MDS Pharma, ref MedChemExpress, read-out: IC50 in all counterscreen assays; cited from earlier work"}, "[6]": {"parameters": "method as in MedChemExpress", "settings": "OGTT, oral 1 h prior to dextrose challenge, ref MedChemExpress, cited from earlier work"}, "[7]": {"settings": "in DMSO; ref MedChemExpress; cited from earlier work"}, "TMEM16A chloride channel": {"test_system": "TMEM16A chloride channel", "parameters": "method as in MedChemExpress", "settings": "ref MedChemExpress; cited from earlier work"}, "EBOV Zaire": {"test_system": "EBOV Zaire", "settings": "ref MedChemExpress [1][2]; read-out: IC50 infectious EBOV Zaire; cited from earlier work"}, "Marburg (MARV)": {"test_system": "Marburg (MARV)", "settings": "ref MedChemExpress [1][2]; cited from earlier work"}, "hERG channel": {"test_system": "hERG channel", "parameters": "method as in MedChemExpress", "settings": "ref MedChemExpress; cited from earlier work"}, "[8]": {"settings": "HTS hits, difference of raw data w/o and w enzyme"}, "[9]": {"settings": "sheet HTS hits, MedChemExpress library"}, "[10]": {"settings": "sheet HTS hits, difference of raw data w/o and w enzyme"}, "[11]": {"settings": "HTS hits, MedChemExpress library"}, "[12]": {"settings": "HTS hits, difference of raw data without and with enzyme"}}, "note": "“And” between values parts separate entries of the source, which are not always exact repeats. Equal entries are not always repeated. Where two headings read alike, the source gives them in different places.", "data": [{"compound": "COc1cc(Cl)c(C(=O)N[C@@H](CN[C@H]2CC[C@@H](N)CC2)Cc2ccc(C#N)cc2)cc1-c1ccc(CN[C@H](C)c2ccc(C)cc2)o1", "note": "[BAY-850]", "values": [{"measurement": "1-D Distance", "setting": "Rlig1-AMP; [8]", "value": 2218}, {"measurement": "Raw data [w Enyzm]", "setting": "Rlig1-AMP; HTS hits", "value": 10576}, {"measurement": "Raw data [w/o Enzym]", "setting": "Rlig1-AMP; HTS hits", "value": 12794}, {"measurement": "IC50", "setting": "[1]", "value": 166, "unit": "nM"}, {"measurement": "solubility", "setting": "[2]; DMSO", "value": "62.5 mg/mL and 95.53 mM"}, {"measurement": "solubility", "setting": "[2]; H2O", "value": "< 0.1", "unit": "mg/mL"}]}, {"compound": "CC(C)(c1ccc(O)cc1)c1ccc(OCc2cccc(COc3ccc(C(=N)N)cc3)c2)cc1.Cl", "note": "[BIIL-260 (hydrochloride)]", "values": [{"measurement": "1-D Distance.npi", "setting": "Rlig1-AMP; [9]", "value": 102.737}, {"measurement": "1-D Distance", "setting": "Rlig1-AMP; [10]", "value": 216}, {"measurement": "Raw data [w Enyzm]", "setting": "Rlig1-AMP; sheet HTS hits", "value": 4623}, {"measurement": "Raw data [w/o Enzym]", "setting": "Rlig1-AMP; sheet HTS hits", "value": 4407}, {"measurement": "Ki", "setting": "LTB4 receptor", "value": 1.7, "unit": "nM"}]}, {"compound": "CN1CCCN(C(=O)c2cccc(-c3ccc(/C=C4/C(=O)Nc5ccc(Cl)cc54)o3)c2)CC1.Cl", "note": "[CX-6258 (hydrochloride)]", "values": [{"measurement": "1-D Distance.npi", "setting": "Rlig1-AMP; [11]", "value": 75.5915}, {"measurement": "1-D Distance", "setting": "Rlig1-AMP; [12]", "value": 1601}, {"measurement": "Raw data [w Enyzm]", "setting": "Rlig1-AMP; HTS hits", "value": 4989}, {"measurement": "Raw data [w/o Enzym]", "setting": "Rlig1-AMP; HTS hits", "value": 6590}, {"measurement": "IC50", "setting": "Pim-1", "value": "[…]"}, {"measurement": "IC50", "setting": "Pim-2", "value": 25, "unit": "nM"}, {"measurement": "IC50", "setting": "Pim-3", "value": 16, "unit": "nM"}]}, {"compound": "CC(C)n1ccc(S(=O)(=O)NC(=O)Nc2c3c(cc4c2CCC4)CCC3)n1", "note": "[Emlenoflast (sodium)]", "values": [{"measurement": "1-D Distance.npi", "setting": "Rlig1-AMP; [11]", "value": 80.6711}, {"measurement": "1-D Distance", "setting": "Rlig1-AMP; [12]", "value": 1207}, {"measurement": "Raw data [w Enyzm]", "setting": "Rlig1-AMP; HTS hits", "value": 9218}, {"measurement": "Raw data [w/o Enzym]", "setting": "Rlig1-AMP; HTS hits", "value": 10425}, {"measurement": "IC50", "setting": "NLRP3 inflammasome", "value": "< 100", "unit": "nM"}]}, {"compound": "O=C1Nc2ccccc2/C1=C1/Nc2ccccc2/C1=N\\O", "note": "[Indirubin-3′-oxime]", "values": [{"measurement": "1-D Distance.npi", "setting": "Rlig1-AMP; [11]", "value": 72.577}, {"measurement": "1-D Distance", "setting": "Rlig1-AMP; [12]", "value": 1766}, {"measurement": "Raw data [w Enyzm]", "setting": "Rlig1-AMP; HTS hits", "value": 1847}, {"measurement": "Raw data [w/o Enzym]", "setting": "Rlig1-AMP; HTS hits", "value": 3613}, {"measurement": "IC50", "setting": "JNK1", "value": 800, "unit": "nM"}, {"measurement": "IC50", "setting": "JNK2", "value": 1400, "unit": "nM"}, {"measurement": "IC50", "setting": "JNK3", "value": 1000, "unit": "nM"}]}, {"compound": "CON=C1C(=C2C(=O)Nc3cc(Cl)c(Cl)cc32)Nc2ccccc21", "note": "[KY19382]", "values": [{"measurement": "1-D Distance.npi", "setting": "Rlig1-AMP; [11]", "value": 101.229}, {"measurement": "1-D Distance", "setting": "Rlig1-AMP; [12]", "value": 138}, {"measurement": "Raw data [w Enyzm]", "setting": "Rlig1-AMP; HTS hits", "value": 6054}, {"measurement": "Raw data [w/o Enzym]", "setting": "Rlig1-AMP; HTS hits", "value": 6192}, {"measurement": "IC50", "setting": "CXXC5-DVL", "value": 19, "unit": "nM"}, {"measurement": "IC50", "setting": "GSK3β", "value": 10, "unit": "nM"}, {"measurement": "solubility", "setting": "[3]", "value": "5 mg/mL and 13.88 mM"}]}, {"compound": "CC(=O)n1c2c(c3ccccc31)CCCC2=O", "note": "[MS7972]", "values": [{"measurement": "1-D Distance", "setting": "Rlig1-AMP; [8]", "value": 1206}, {"measurement": "1-D Distance.npi", "setting": "Rlig1-AMP; HTS hits, normalized value (npi)", "value": 81.4632}, {"measurement": "Raw data [w Enyzm]", "setting": "Rlig1-AMP; HTS hits", "value": 8943}, {"measurement": "Raw data [w/o Enzym]", "setting": "Rlig1-AMP; HTS hits", "value": 10149}, {"measurement": "block of BRD interaction", "setting": "[4]", "value": "MS7972 is a small molecule that blocks human p53 and CREB binding protein association. MS7972 can almost completely block this BRD interaction at 50 μM[1]."}]}, {"compound": "CS(=O)(=O)n1cc2c(n1)CN([C@H]1CO[C@H](c3cc(F)ccc3F)[C@@H](N)C1)C2", "note": "[Omarigliptin]", "values": [{"measurement": "1-D Distance", "setting": "Rlig1-AMP; [10]", "value": 1732}, {"measurement": "Raw data [w Enyzm]", "setting": "Rlig1-AMP; sheet HTS hits", "value": 9138}, {"measurement": "Raw data [w/o Enzym]", "setting": "Rlig1-AMP; sheet HTS hits", "value": 10870}, {"measurement": "IC50", "setting": "DPP-4", "value": 1.6, "unit": "nM"}, {"measurement": "IC50", "setting": "all proteases tested", "value": "> 67000", "unit": "nM"}, {"measurement": "IC50", "setting": "IKr, Cav1.2, and Nav1.5", "value": "> 30000", "unit": "nM"}, {"measurement": "IC50", "setting": "[5]", "value": "> 10000", "unit": "nM"}, {"measurement": "reduction in glucose AUC", "setting": "[6]; 0.01 mg/kg", "value": 7, "unit": "%"}, {"measurement": "reduction in glucose AUC", "setting": "[6]; 0.3 mg/kg", "value": 51, "unit": "%"}, {"measurement": "solubility, DMSO", "setting": "[7]", "value": "DMSO : 50 mg/mL (125.49 mM; Need ultrasonic)"}]}, {"compound": "CC(C)=CC[C@@H](O)C1=CC(=O)c2c(O)ccc(O)c2C1=O", "note": "[Shikonin]", "values": [{"measurement": "1-D Distance", "setting": "Rlig1-AMP; [12]", "value": 1574}, {"measurement": "Raw data [w Enyzm]", "setting": "Rlig1-AMP; HTS hits", "value": 3611}, {"measurement": "IC50", "setting": "TMEM16A chloride channel", "value": 6500, "unit": "nM"}]}, {"compound": "CN(C)CCOc1ccc(/C(=C(/CCCl)c2ccccc2)c2ccccc2)cc1.O=C(O)CC(O)(CC(=O)O)C(=O)O", "note": "[Toremifene (citrate)]", "values": [{"measurement": "1-D Distance.npi", "setting": "Rlig1-AMP; [9]", "value": 77.3877}, {"measurement": "1-D Distance", "setting": "Rlig1-AMP; [10]", "value": 1366}, {"measurement": "Raw data [w Enyzm]", "setting": "Rlig1-AMP; sheet HTS hits", "value": 9443}, {"measurement": "IC50", "setting": "EBOV Zaire", "value": 70, "unit": "nM"}, {"measurement": "IC50", "setting": "Marburg (MARV)", "value": 2600, "unit": "nM"}]}, {"compound": "Tannic acid", "values": [{"measurement": "1-D Distance.npi", "setting": "Rlig1-AMP; [11]", "value": 92.4189}, {"measurement": "1-D Distance", "setting": "Rlig1-AMP; [12]", "value": 691}, {"measurement": "Raw data [w Enyzm]", "setting": "Rlig1-AMP; HTS hits", "value": 13343}, {"measurement": "Raw data [w/o Enzym]", "setting": "Rlig1-AMP; HTS hits", "value": 14034}, {"measurement": "IC50", "setting": "hERG channel", "value": 3400, "unit": "nM"}]}]}
